{"source": "ChEMBL document CHEMBL1201862", "about": "“PubChem BioAssay data set” (2004)", "key": {"[1]": {"assay": "blockers of HIV-1 ZM109 envelope-driven cell-cell fusion – HeLa effector, CEM target cells, luciferase, cherry-pick, dose response (AID 652058)", "format": "functional, cell-based"}, "[2]": {"assay": "off-target signal loss in HeLa-CEM21 co-culture – HeLa F-luc CTL cells, cherry-picked, counter-screen for HIV-1 Env fusion inhibitor project, dose response (AID 652040);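 also: potency for signal decrease marking cytotoxic or nonspecific inhibition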", "format": "functional, cell-based"}, "[3]": {"assay": "growth inhibition of yeast DHODH-expressing 3D7 parasites – SYBR Green, dry powder samples, dose response (AID 1159570);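 also: parasite growth measured after 72 hours of compound exposure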", "format": "functional, cell-based"}, "[4]": {"assay": "growth inhibition of PfATP4-mutant resistant parasites – NITD609-resistant line, SYBR Green, dry powder, dose response (AID 1159571);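 also: parasites synchronized at ring stage by sorbitol before testing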", "format": "functional, cell-based"}, "[5]": {"assay": "P. falciparum Dd2 growth inhibitors, dose response, SYBR Green, cherry-picked samples (AID 1159567)", "format": "functional, cell-based"}, "HEK293 [6]": {"test_system": "HEK293", "assay": "cells", "settings": "Homo sapiens"}, "[7]": {"assay": "toxicity to human HepG2 hepatoma cells – cell-based, plate reader, dry powder samples, cytotoxicity control, dose response (AID 1159569);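 also: inhibitor potency with signal falling toward the positive control level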", "format": "functional"}, "HEK293 [8]": {"test_system": "HEK293", "assay": "cells", "settings": "Homo sapiens", "remark": "listed apart in the source"}, "[9]": {"assay": "blockers of HIV-1 envelope-mediated cell-cell fusion – cherry-pick, dose response (AID 652057)", "format": "functional, cell-based"}, "[10]": {"assay": "Dd2 malaria parasite growth inhibition potency – SYBR Green, dry powder samples, dose response (AID 1159566);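 also: potency for growth inhibition with lower SYBR green DNA signal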", "format": "functional, cell-based"}, "[11]": {"assay": "viability loss in CEM21 cells – cell-based, CellTiter-Glo luminescence, cherry-picked, cytotoxicity control for viral fusion inhibitor project, dose response (AID 652042);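 also: potency for signal decrease meaning cytotoxicity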", "format": "functional"}, "[12]": {"assay": "HIV-1 AD8 envelope cell-cell fusion blockers – cherry-pick, dose response (AID 652062);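 also: potency is for inhibitors of fusion seen as a drop in luminescence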", "format": "functional, cell-based"}, "H9c2": {"test_system": "H9c2", "assay": "cells", "format": "functional, cell-based", "settings": "Rattus norvegicus, H9c2, Myocardium"}, "[13]": {"target": "E3 ubiquitin-protein ligase Mdm2 (Homo sapiens, UniProt Q00987)", "sequence (Q00987 whole entry)": "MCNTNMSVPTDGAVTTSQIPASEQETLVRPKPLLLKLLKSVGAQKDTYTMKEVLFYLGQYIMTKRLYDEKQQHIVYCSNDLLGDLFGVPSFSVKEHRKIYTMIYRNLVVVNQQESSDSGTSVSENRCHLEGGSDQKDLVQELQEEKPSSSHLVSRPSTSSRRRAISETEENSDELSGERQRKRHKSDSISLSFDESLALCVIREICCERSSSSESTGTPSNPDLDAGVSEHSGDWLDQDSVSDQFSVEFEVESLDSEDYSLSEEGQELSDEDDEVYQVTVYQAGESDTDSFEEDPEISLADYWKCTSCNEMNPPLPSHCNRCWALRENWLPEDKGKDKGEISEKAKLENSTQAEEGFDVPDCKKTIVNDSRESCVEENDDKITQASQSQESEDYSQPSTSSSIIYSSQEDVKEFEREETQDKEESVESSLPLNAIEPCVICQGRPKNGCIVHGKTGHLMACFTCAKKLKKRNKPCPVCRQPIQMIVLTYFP", "assay": "MDM2-luc reporter signal enhancers, multi-concentration potency testing, MDM2 ubiquitin-protein ligase inhibitor program, whole-cell format, luminescence detection, 384-well microplate (AID 1394);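 also: MDM2 E3 inhibitors raise luminescence so EC50 is for signal enhancement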", "format": "functional"}, "Prothrombin": {"target": "Prothrombin (Bos taurus, UniProt P00735)", "assay": "thrombin protease inhibitors – biochemical, fluorescence polarization, uHTS hits, dose response (AID 602369)", "format": "functional"}, "[14]": {"target": "26S proteasome non-ATPase regulatory subunit 14 (Homo sapiens, UniProt O00487)", "sequence (O00487 whole entry)": "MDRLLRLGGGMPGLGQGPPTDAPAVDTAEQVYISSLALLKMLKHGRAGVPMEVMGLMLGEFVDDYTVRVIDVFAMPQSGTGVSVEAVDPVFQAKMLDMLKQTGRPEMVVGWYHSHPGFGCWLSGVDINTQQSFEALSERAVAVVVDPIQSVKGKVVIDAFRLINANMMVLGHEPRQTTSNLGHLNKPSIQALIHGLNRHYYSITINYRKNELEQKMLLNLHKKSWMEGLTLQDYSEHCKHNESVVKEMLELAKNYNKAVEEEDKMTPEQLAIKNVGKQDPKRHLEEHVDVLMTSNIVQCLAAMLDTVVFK", "assay": "inhibition of proteasome subunit RPN11 – biochemical, fluorescence polarization, uHTS hits, confirmation (AID 602368)", "format": "functional"}, "[15]": {"target": "72 kDa type IV collagenase (Homo sapiens, UniProt P08253)", "sequence (P08253 whole entry)": "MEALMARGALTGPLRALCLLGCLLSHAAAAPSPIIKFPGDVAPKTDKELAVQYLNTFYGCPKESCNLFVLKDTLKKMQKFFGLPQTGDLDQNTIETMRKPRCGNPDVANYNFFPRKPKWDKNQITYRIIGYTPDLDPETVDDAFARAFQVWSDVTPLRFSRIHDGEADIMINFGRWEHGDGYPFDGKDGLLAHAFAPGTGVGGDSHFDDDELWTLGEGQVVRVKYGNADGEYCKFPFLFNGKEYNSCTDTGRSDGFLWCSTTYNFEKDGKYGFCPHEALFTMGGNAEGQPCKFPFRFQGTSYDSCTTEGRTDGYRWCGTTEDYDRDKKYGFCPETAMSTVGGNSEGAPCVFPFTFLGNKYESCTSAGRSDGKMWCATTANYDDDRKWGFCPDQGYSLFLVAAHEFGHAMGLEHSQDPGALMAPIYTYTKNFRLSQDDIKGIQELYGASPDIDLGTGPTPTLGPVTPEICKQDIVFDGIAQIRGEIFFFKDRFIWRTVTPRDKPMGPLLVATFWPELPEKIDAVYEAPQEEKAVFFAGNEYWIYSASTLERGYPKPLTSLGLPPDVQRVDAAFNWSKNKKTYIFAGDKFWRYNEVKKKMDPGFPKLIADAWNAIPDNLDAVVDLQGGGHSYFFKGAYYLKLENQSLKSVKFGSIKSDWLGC", "assay": "Dose Response validation of uHTS RPN11 inhibitor hits using a MMP-2 Fluorescence assay.", "format": "functional"}, "[16]": {"target": "Bifunctional protein GlmU (Mycobacterium tuberculosis, UniProt P9WMN3)", "sequence (P9WMN3 whole entry)": "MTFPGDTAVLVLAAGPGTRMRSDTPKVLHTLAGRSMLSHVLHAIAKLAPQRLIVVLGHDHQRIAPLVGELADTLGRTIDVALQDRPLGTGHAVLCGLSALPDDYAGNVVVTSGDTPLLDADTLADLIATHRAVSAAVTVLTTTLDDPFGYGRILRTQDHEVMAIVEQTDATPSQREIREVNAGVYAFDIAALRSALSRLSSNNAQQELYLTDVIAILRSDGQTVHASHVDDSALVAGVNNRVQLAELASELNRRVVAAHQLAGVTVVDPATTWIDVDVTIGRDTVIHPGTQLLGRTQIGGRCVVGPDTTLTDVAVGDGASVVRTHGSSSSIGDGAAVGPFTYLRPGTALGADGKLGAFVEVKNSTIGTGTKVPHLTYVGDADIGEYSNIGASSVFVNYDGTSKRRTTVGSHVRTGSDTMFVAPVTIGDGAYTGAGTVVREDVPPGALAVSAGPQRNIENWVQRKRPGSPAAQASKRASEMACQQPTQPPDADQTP", "assay": "Inhibitors of Mycobacterial Glucosamine-1-phosphate acetyl transferase (GlmU). Secondary screen.", "design": "species or system Mycobacterium tuberculosis H37Rv"}, "Leucine aminopeptidase": {"target": "T1, Leucine aminopeptidase (Plasmodium falciparum 3D7, UniProt Q8IL11)", "T1 sequence (Q8IL11 whole entry)": "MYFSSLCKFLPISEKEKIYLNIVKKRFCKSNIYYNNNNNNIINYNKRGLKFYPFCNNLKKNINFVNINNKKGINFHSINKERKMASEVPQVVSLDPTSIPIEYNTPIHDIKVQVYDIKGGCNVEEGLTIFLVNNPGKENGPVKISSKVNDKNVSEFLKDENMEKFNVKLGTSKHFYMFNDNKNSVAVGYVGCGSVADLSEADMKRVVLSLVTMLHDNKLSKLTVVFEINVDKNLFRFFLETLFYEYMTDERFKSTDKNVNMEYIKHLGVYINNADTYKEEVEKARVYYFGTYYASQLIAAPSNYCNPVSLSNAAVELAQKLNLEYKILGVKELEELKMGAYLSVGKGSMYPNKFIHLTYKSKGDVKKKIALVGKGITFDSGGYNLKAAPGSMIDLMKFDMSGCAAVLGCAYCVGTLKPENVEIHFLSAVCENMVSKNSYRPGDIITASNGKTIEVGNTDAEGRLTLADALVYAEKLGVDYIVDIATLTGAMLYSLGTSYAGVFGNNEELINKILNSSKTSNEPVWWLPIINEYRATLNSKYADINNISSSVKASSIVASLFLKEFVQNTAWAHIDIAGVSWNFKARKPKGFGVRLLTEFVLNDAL", "assay": "P. falciparum M17LAP inhibitors, primary screen, biochemical, fluorogenic H-Leu-NHMec substrate, 1536-well (AID 1619)", "format": "functional"}, "[17]": {"assay": "toxicity to human hepatoma HepG2 cells – cell-based, cherry-picked samples, cytotoxicity control, dose response (AID 1159577)", "format": "functional"}, "[18]": {"target": "G-protein coupled receptor 55 (Homo sapiens, UniProt Q9Y2T6)", "sequence (Q9Y2T6 whole entry)": "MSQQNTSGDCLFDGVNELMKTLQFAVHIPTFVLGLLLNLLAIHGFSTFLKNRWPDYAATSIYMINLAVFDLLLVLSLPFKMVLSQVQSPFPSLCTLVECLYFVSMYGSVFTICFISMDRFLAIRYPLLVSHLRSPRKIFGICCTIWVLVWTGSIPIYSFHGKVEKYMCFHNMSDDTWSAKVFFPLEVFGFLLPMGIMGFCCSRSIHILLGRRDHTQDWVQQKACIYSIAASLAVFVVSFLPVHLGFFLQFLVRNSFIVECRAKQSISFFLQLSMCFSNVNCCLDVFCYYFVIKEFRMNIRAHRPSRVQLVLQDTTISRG", "assay": "inhibition of LPI-stimulated GPR55 beta-arrestin translocation – imaging, U2OS, beta-arrestin-GFP, LPI agonist, primary screen (AID 2013);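 also: antagonist potency measured as reduced agonist-driven arrestin aggregation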", "format": "functional"}, "[19]": {"target": "G-protein coupled receptor 35 (Homo sapiens, UniProt Q9HC97)", "sequence (Q9HC97 whole entry)": "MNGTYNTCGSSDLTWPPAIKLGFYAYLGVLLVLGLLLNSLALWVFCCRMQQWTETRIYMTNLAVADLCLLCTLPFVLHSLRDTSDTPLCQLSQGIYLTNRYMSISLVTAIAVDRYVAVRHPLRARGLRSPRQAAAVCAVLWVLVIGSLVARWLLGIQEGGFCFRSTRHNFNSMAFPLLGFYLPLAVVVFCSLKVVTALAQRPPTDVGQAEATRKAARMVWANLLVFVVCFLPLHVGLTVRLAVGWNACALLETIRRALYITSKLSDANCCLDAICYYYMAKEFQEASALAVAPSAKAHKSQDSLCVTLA", "assay": "inhibition of zaprinast-stimulated GPR35 beta-arrestin translocation – imaging, U2OS, beta-arrestin-GFP, zaprinast agonist, primary screen (AID 2058);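 also: antagonist potency meaning inhibition of agonist-induced arrestin redistribution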", "format": "functional"}}, "note": "Activity calls are given as the source filed them.", "data": [{"smiles": "Cc1ccc(S(=O)(=O)N(C)C[C@@H]2OCc3ccccc3-c3c(n(C)c4ccccc34)C(=O)N([C@H](C)CO)C[C@@H]2C)cc1", "values": [{"measurement": "AC50", "setting": "[1]", "value": "2 µM (active)"}, {"measurement": "AC50", "setting": "[2]", "value": "1.66 µM (active)"}, {"measurement": "AC50", "setting": "[3]", "value": "0.151 µM (active)"}, {"measurement": "AC50", "setting": "[4]", "value": "0.106 µM (active)"}, {"measurement": "AC50", "setting": "[5]", "value": "0.676 µM (active)"}, {"measurement": "EC50", "setting": "HEK293 [6]", "value": "> 59.6 µM (inactive)"}, {"measurement": "AC50", "setting": "[7]", "value": "52.3 µM (active)"}, {"measurement": "EC50", "setting": "HEK293 [8]", "value": "> 59.6 µM (inactive)"}, {"measurement": "AC50", "setting": "[9]", "value": "1.87 µM (active)"}, {"measurement": "AC50", "setting": "[10]", "value": "0.0655 µM (active)"}, {"measurement": "AC50", "setting": "[11]", "value": "29.6 µM (active)"}, {"measurement": "AC50", "setting": "[12]", "value": "2.16 µM (active)"}]}, {"smiles": "COc1cccc(/C=N/NC(=O)c2[nH]c(C)c(C(=O)N/N=C/c3cccc(OC)c3)c2C)c1", "values": [{"measurement": "IC50", "setting": "H9c2", "value": "10.6 µM (active)"}, {"measurement": "EC50", "setting": "[13]", "value": "6.15 µM (not active)"}, {"measurement": "IC50", "setting": "Prothrombin", "value": "> 100 µM (inactive)"}, {"measurement": "IC50", "setting": "[14]", "value": "1.41 µM (active)"}, {"measurement": "IC50", "setting": "[15]", "value": "> 100 µM (inactive)"}]}, {"smiles": "O=C(O)c1cccc(-c2ccc(/C=N/NC(=O)c3cccnc3)o2)c1", "values": [{"measurement": "IC50", "setting": "[16]", "value": "185 µM (active)"}, {"measurement": "IC50", "setting": "Leucine aminopeptidase", "value": "37.5 µM (active)"}]}, {"smiles": "C[C@H]1CN([C@@H](C)CO)C(=O)c2ccccc2-c2ccccc2CO[C@H]1CN(C)Cc1ccc(C(F)(F)F)cc1", "values": [{"measurement": "AC50", "setting": "[5]", "value": "3.03 µM (active)"}, {"measurement": "AC50", "setting": "[17]", "value": "> 42 µM (inactive)"}]}, {"smiles": "CCC(=O)N1CC(=O)N2[C@@H](CO)[C@H](c3ccc(C#CCc4ccccc4)cc3)[C@@H]2C1", "values": [{"measurement": "AC50", "setting": "[5]", "value": "11.4 µM (active)"}, {"measurement": "AC50", "setting": "[17]", "value": "25.2 µM (active)"}]}, {"smiles": "O=C1C=CC(=O)N1CCCCCCN1C(=O)C=CC1=O", "values": [{"measurement": "IC50", "setting": "[18]", "value": "9.79 µM (active)"}, {"measurement": "IC50", "setting": "[19]", "value": "6.23 µM (active)"}, {"measurement": "IC50", "setting": "[16]", "value": "118 µM (active)"}]}]}
